SMILES strings stand for the structures.

In ChEMBL document CHEMBL1125668, “Synthesis and anti-HIV activity of 2-, 3-, and 4-substituted analogues of 1-[(2-hydroxyethoxy)methyl]-6-(phenylthio)thymine (HEPT)” (J Med Chem, 1991) one finds EC50 and CC50 data, which are given here for 11 molecules.

In test [1] the test system is Human immunodeficiency virus 1. Briefly: Inhibitory activity against HIV-1 (HTLV-IIIB strain) replication in MT-4 cells. Type of test: functional, organism-based. To be noted: Human immunodeficiency virus 1, MT4.
Test [2] deals with Human immunodeficiency virus 1. As to the kind of experiment: Cytotoxic concentration of compound required to reduce the viability of mock infected MT-4 cells against the HIV-1 (HTLV-IIIB)induced cytopathic effect. It is filed as functional. To be noted: Human immunodeficiency virus 1, MT4.
In test [3] the test system is Human immunodeficiency virus 2. As to the kind of experiment: Inhibitory activity against HIV-2(LAV-2ROD strain) replication in MT-4 cells. Type of test: functional, organism-based. To be noted: Human immunodeficiency virus 2, MT4.
Test [4] concerns Human immunodeficiency virus 1. As to the kind of experiment: Inhibitory activity against HIV-1 (HTLV-IIIB strain) replication in peripheral blood lymphocytes. Type of test: functional, organism-based.
The subject of test [5] is Human immunodeficiency virus 2. Briefly: Inhibitory activity against HIV-2(LAV-2EHO strain) replication in MT-4 cells. Type of test: functional, organism-based. The note with it: Human immunodeficiency virus 2, MT4.
The subject of test [6] is Human immunodeficiency virus 1. As to the kind of experiment: Inhibitory activity against HIV-1 (HTLV-IIIRF strain) replication in MT-4 cells. Type of test: functional, organism-based. The note with it: Human immunodeficiency virus 1, MT4.
The test system of test [7] is Human immunodeficiency virus 1. As to the kind of experiment: Cytotoxic concentration of compound required to incorporate [5-3H]-Urd into RNA of mock infected peripheral blood lymphocytes in HIV-1 (HTLV-IIIB)by 50%. It is filed as functional.

What is called EC50 is the concentration giving half of the maximal effect. Low values mean an effect from little substance, high ones a need for much substance. The term CC50 denotes the concentration that lowers cell viability or growth by half. Molecule `O=c1cc(Sc2ccccc2)n(COCCO)c(=S)[nH]1` gave an EC50 in test [1] of over 198 µM. In test [2], the CC50 amounted to 198 µM.

In test [1], `Cc1c(Sc2ccccc2)n(COCCO)c(=O)n(Cc2ccccc2)c1=O` displayed an EC50 of over 40 µM. It took 40 µM to reach half-maximal cytotoxicity in test [2] (CC50).

Molecule `Cc1c(N)nc(=O)n(COCCO)c1Sc1ccccc1` gave an EC50 in test [1] of over 91 µM. In addition, the CC50 in test [2] was determined as 91 µM.

Consider `Cc1cn([C@H]2C[C@H](N=[N+]=[N-])[C@@H](CO)O2)c(=O)[nH]c1=O` [ZIDOVUDINE], for which the EC50 worked out at 0.003 µM in test [1] and 0.0028 µM in test [3]. In test [2], the CC50 came to 7.8 µM.

Take `Cc1c(Sc2ccccc2)n(COCCO)c(=O)n(C)c1=O`: in test [1], the EC50 was over 374 µM. Besides, the CC50 in test [2] is over 374 µM.

For the molecule `O=c1[nH]c(=S)cc(Sc2ccccc2)n1COCCO`, the half-maximal effective concentration (EC50) in test [1] is over 4.1 µM. In test [2], it took 4.1 µM to reach half-maximal cytotoxicity (CC50).

In the case of `Cc1c(Sc2ccccc2)n(COCCO)c(=O)[nH]c1=O` [HEPT], the EC50 was 7.9 µM in test [4]; over 250 µM in test [5]; 7 µM in test [1]; 8.1 µM in test [6]; over 250 µM in test [3]. For the same molecule, the CC50 in test [7] worked out at 640 µM; in test [2], 740 µM.

As to `Cc1c(Sc2ccccc2)n(COCCO)c(=S)[nH]c1=O`, the EC50 is 2.9 µM in test [4]; over 100 µM in test [5]; 0.98 µM in test [1]; 2.5 µM in test [6]; over 100 µM in test [3]. Besides, the CC50 in test [7] worked out at 292 µM; in test [2] it was 123 µM.

Turning to `Nc1ncnc2c1ncn2[C@H]1CC[C@@H](CO)O1`, the results for the EC50 in test [1] and in test [3] were 6.3 µM and 7.2 µM, respectively. This molecule displayed a CC50 in test [2] of over 500 µM.

For `Nc1cc(Sc2ccccc2)n(COCCO)c(=O)n1`, the EC50 in test [1] is over 250 µM. Also, the CC50 in test [2] was over 250 µM.

On to `Cc1c(Sc2ccccc2)n(COCCO)c(=O)[nH]c1=S`, for which, in test [1], the EC50 was over 27 µM. Further, the CC50 in test [2] was determined as 27 µM.
